# Laboratory results taken from patent publication US9849193B2, “Nanoparticles for drug delivery” (University of Louisville Research Foundation, Inc., priority 2013, dated 2017).
# Experiment: Heat-induced release of drug surrogate (alcohol 11 or amine 12) from linkers in methanol, HPLC quantification
# Assay type: physicochemical
# Details: for % release after heating (55° C.) at time (h) 0.25 / % release after heating (55° C.) at time (h) 0.5 / % release after heating (55° C.) at time (h) 0.75 / % release after heating (55° C.) at time (h) 1 / % release after heating (55° C.) at time (h) 2 / % release after heating (55° C.) at time (h) 3 / % release after heating (55° C.) at time (h) 24 h / % release at rt, 3.5 h: release of alcohol 11, mean ± SD, n = 3; for % release after heating (55° C.) at time (h) 0.25 / % release after heating (55° C.) at time (h) 0.5 / % release after heating (55° C.) at time (h) 0.75 / % release after heating (55° C.) at time (h) 1 / % release after heating (55° C.) at time (h) 2 / % release after heating (55° C.) at time (h) 3 / % release after heating (55° C.) at time (h) 24 h / Heat-induced release of 11 or 12 (result in words, spans all time columns): methanol ca. 0.01 M; for % release after heating (55° C.) at time (h) 0.25: 0.25 h; for % release after heating (55° C.) at time (h) 0.5: 0.5 h; for % release after heating (55° C.) at time (h) 0.75: 0.75 h; for % release after heating (55° C.) at time (h) 1: 1 h; for % release after heating (55° C.) at time (h) 2: 2 h; for % release after heating (55° C.) at time (h) 3: 3 h; for % release at rt, 3.5 h: room temperature control; for Heat-induced release of 11 or 12 (result in words, spans all time columns): 55° C. up to 24 h and rt 3.5 h
# Procedure: Methanol (MeOH) was used as a solvent to provide a protic solvent capable of hydrogen bonding. The amine-containing linker compounds, formed on Boc-deprotection with basic work-up (compounds 4.1-3, 8.1-2, 9, 10), were diluted with MeOH (2 mL, ˜0.01 M). An aliquot was removed to serve as a room temperature control. Heat was applied to the MeOH solutions using an oil bath. The temperature was set at 55° C., and the solutions were heated for a total of 24 h. Aliquots were taken at t=0.25, 0.50, 0.75, 1, 2, 3, and 24 h into the reaction. On sampling, the aliquots were, immediately stored at −5° C. On completion of the experiment, the samples were warmed to room temperature, filtered and dried under reduced pressure (3.5 h duration) and then returned to −5° C. Each sample was then removed individually from the freezer and diluted with 400 μL CH2Cl2 before injecting 50 μL into an HPLC fitted with a normal phase silica column (Waters Nova-Pak HR Silica, 6 μm, 60 Å, 3.9×300 mm prep column; 1% MeOH in CH2Cl2 with 0.1% Et3N). HPLC analysis enabled quantification of released 11 or 12. Schemes 3 and 4 depict the intramolecular cyclization processes to release the drug surrogate (e.g., 11 or 12). […] FIG. 12 graphically illustrates the heat-induced release of alcohol 11 (Table 1). The substrates were heated as methanol solutions (ca. 0.01 M) at 55° C. for the indicated times as described above.
Compound,% release after heating (55° C.) at time (h) 0.25,% release after heating (55° C.) at time (h) 0.5,% release after heating (55° C.) at time (h) 0.75,% release after heating (55° C.) at time (h) 1,% release after heating (55° C.) at time (h) 2,% release after heating (55° C.) at time (h) 3,% release after heating (55° C.) at time (h) 24 h,"% release at rt, 3.5 h","Heat-induced release of 11 or 12 (result in words, spans all time columns)"
"C=CCNCCC(C)(C)CCC(=O)OCCc1c2ccccc2cc2ccccc12 [Compound 20, 2-(anthracen-9-yl)ethyl 6-(allylamino)-4,4-dimethylhexanoate]",2.0 ± 0.1%,2.2 ± 0.1%,2.7 ± 0.1%,3.3 ± 0.4%,4.1 ± 0.3%,5.2 ± 0.8%,24.7 ± 3.9%,1.8 ± 0.2%,–
"C=CCNCCCC(=O)NCCc1c2ccccc2cc2ccccc12 [Compound 9, 4-(allylamino)-N-(2-(anthracen-9-yl)ethyl)butanamide]",–,–,–,–,–,–,–,–,no reaction
"C=CCNCCC(C)(C)COC(=O)OCCc1c2ccccc2cc2ccccc12 [Compound 23, 4-(allylamino)-2,2-dimethylbutyl(2-(anthracen-9-yl)ethyl) carbonate]",1.8 ± 0.4%,2.3 ± 0.5%,2.9 ± 0.1%,4.0 ± 0.3%,5.7 ± 1.0%,7.6 ± 0.3%,36.6 ± 0.3%,0.7 ± 0.1%,–
"C=CCNCCNC(=O)OCCc1c2ccccc2cc2ccccc12 [Compound 10, 2-(anthracen-9-yl)ethyl(2-(allylamino)ethyl)carbamate]",–,–,–,–,–,–,–,–,no reaction

# Other lines, results leading:
% release after heating (55° C.) at time (h) 0.25,% release after heating (55° C.) at time (h) 0.5,% release after heating (55° C.) at time (h) 0.75,% release after heating (55° C.) at time (h) 1,% release after heating (55° C.) at time (h) 2,% release after heating (55° C.) at time (h) 3,% release after heating (55° C.) at time (h) 24 h,"% release at rt, 3.5 h","Heat-induced release of 11 or 12 (result in words, spans all time columns)",Compound
24.6 ± 3.1%,29.2 ± 1.7%,33.4 ± 2.5%,36.6 ± 2.6%,44.4 ± 3.7%,50.2 ± 4.2%,94.0 ± 1.8%,20.2 ± 3.1%,–,"C=CCNCCCC(=O)OCCc1c2ccccc2cc2ccccc12 [Compound 4.1, 2-(anthracen-9-yl)ethyl 4-(allylamino)butanoate]"
23.5 ± 1.9%,28.9 ± 1.7%,32.4 ± 4.0%,36.7 ± 4.8%,48.3 ± 5.7%,57.0 ± 6.9%,68.9 ± 3.0%,18.8 ± 2.3%,–,"C=CCNCCOC(=O)OCCc1c2ccccc2cc2ccccc12 [Compound 8.1, 2-(allylamino)ethyl(2-(anthracen-9-yl)ethyl) carbonate]"
2.1 ± 1.6%,1.8 ± 1.9%,2.1 ± 2.2%,2.1 ± 1.8%,3.1 ± 2.9%,3.6 ± 3.0%,10.4 ± 3.8%,1.7 ± 2.0%,–,"C=CCNCCCCCC(=O)OCCc1c2ccccc2cc2ccccc12 [Compound 4.3, 2-(anthracen-9-yl)ethyl 6-(allylamino)hexanoate]"
20.9 ± 1.9%,21.6 ± 3.5%,23.0 ± 3.0%,25.0 ± 2.1%,30.5 ± 1.3%,36.5 ± 1.2%,75.7 ± 3.2%,17.0 ± 4.5%,–,"C=CCNCCCCC(=O)OCCc1c2ccccc2cc2ccccc12 [Compound 4.2, 2-(anthracen-9-yl)ethyl 5-(allylamino)pentanoate]"
12.0 ± 0.8%,14.1 ± 0.7%,16.4 ± 1.0%,18.0 ± 0.7%,24.8 ± 1.1%,29.0 ± 1.0%,62.1 ± 5.6%,9.6 ± 1.1%,–,"C=CCNCCCOC(=O)OCCc1c2ccccc2cc2ccccc12 [Compound 8.2, 3-(allylamino)propyl(2-(anthracen-9-yl)ethyl) carbonate]"
